The values that follow come from PMC10241523 (The Journal of Venomous Animals and Toxins Including …, 2023).

The test system of one data set is ND7/23 cells. The conditions noted are these: 48 h.
Data set [1] concerns potassium channel currents in rat DRG neurons. It is filed as cell-based. The following applies: 10 μM.
For data set [2], the target named is T1, human CaV1.2 (hCaV1.2) (Homo sapiens, UniProt Q13936). Kind of data set: cell-based. The conditions noted are these: HEK293, read-out: inhibition of hCaV1.2 currents.
T1 sequence (Q13936 whole entry, looked up): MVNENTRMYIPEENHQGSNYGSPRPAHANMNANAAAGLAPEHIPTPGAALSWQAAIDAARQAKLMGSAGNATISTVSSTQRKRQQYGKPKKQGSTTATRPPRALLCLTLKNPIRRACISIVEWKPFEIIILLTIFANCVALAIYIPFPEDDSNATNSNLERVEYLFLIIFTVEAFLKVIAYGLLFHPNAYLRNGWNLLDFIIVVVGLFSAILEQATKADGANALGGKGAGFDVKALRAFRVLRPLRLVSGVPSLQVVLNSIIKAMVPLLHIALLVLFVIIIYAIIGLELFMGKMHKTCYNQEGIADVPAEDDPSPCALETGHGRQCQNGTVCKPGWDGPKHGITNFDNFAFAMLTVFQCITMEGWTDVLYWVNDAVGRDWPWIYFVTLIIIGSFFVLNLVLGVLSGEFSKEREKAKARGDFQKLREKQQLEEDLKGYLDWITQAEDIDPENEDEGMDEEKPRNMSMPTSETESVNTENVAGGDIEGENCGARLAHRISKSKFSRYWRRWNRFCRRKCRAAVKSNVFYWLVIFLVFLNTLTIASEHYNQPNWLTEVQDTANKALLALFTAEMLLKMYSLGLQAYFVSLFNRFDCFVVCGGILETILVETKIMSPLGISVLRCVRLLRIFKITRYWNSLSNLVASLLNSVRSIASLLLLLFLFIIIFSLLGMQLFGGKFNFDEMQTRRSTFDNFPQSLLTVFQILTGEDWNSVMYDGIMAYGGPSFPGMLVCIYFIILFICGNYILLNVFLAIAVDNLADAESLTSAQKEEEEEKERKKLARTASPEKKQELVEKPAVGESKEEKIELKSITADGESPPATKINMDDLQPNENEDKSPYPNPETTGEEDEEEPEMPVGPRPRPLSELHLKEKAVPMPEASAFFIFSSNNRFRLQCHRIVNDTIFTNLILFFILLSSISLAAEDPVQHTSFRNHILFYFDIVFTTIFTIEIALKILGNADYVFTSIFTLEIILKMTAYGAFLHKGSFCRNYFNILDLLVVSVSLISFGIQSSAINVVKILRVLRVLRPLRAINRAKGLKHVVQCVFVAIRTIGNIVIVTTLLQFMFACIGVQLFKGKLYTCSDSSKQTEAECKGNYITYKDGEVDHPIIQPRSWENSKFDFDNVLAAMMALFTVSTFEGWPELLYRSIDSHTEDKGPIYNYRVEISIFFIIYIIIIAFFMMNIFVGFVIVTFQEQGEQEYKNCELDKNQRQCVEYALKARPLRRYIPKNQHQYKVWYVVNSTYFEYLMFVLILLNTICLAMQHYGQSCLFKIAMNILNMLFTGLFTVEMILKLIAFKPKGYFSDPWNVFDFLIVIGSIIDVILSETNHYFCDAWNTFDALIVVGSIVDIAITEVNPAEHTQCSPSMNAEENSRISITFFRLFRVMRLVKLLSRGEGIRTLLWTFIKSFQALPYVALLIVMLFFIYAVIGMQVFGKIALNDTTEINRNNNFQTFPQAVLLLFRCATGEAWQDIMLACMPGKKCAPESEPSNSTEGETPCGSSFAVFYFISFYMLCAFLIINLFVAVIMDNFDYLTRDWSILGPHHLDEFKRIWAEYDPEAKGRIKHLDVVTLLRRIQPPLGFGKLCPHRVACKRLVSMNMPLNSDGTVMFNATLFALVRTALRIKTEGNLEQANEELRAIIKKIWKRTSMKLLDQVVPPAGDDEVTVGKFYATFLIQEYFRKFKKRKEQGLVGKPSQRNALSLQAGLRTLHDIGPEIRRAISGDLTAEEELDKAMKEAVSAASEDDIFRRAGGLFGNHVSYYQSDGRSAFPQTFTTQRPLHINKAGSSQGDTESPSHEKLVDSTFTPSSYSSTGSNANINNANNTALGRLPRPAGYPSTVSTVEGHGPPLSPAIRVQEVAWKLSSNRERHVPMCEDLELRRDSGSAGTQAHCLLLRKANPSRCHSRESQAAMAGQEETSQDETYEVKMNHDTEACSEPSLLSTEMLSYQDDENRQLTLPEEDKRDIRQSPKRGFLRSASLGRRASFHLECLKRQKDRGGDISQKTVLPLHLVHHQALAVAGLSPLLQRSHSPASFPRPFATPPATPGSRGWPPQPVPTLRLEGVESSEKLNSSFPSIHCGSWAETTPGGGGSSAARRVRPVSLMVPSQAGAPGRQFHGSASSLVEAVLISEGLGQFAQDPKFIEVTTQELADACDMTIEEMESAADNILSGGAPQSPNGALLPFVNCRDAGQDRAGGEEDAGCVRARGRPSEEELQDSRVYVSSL
The subject of another data set is human CaV2.2 (hCaV2.2). In kind it is cell-based. The following applies: 10 μM.
Data set [3] has as its system calcium channel currents in rat DRG neurons. In kind it is cell-based. The conditions noted are these: 10 μM.
Data set [4] relates to sodium channel currents in rat DRG neurons. It is filed as cell-based. The conditions noted are these: 10 μM; n = 3.
A further data set has as its system human NaV1.7 (hNaV1.7). In kind it is cell-based. The following applies: 10 μM.
The subject of the next data set is hNaV1.8. In kind it is cell-based, human.
The subject of the next data set is human NaV1.3 (hNaV1.3). It is filed as cell-based. The conditions noted are these: 10 μM.
The target of data set [5] is T1, human CaV1.2 (hCaV1.2). The following applies: pH 7.4.
Another data set concerns Kunming mice. The following applies: mouse, in vivo.
Data set [6] concerns voltage-gated calcium channels. The following applies: cited from earlier work.
A further data set concerns calcium currents. The conditions noted are these: cited from earlier work.

Read-outs that look alike come from different tables or passages of the source. Where a SMILES comes first, the peptide text is derived from it. Bridges are numbered along the chain shown (N, C = ends).

`CC[C@H](C)[C@H](NC(=O)[C@@H]1CSSC[C@@H]2NC(=O)[C@H](Cc3ccc(O)cc3)NC(=O)[C@H]([C@@H](C)CC)NC(=O)[C@H](C(C)C)NC(=O)CNC(=O)[C@H](CC(C)C)NC(=O)[C@H](CC(C)C)NC(=O)[C@H](CO)NC(=O)[C@H](C)NC(=O)[C@@H]3CCCN3C(=O)[C@@H]3CSSC[C@H](NC(=O)[C@H]([C@@H](C)CC)NC(=O)[C@H](CC(C)C)NC(=O)CNC(=O)[C@H](CCC(=O)O)NC(=O)[C@H](CSSC[C@H](NC(=O)[C@@H](N)CC(=O)O)C(=O)N[C@@H](Cc4c[nH]cn4)C(=O)N[C@@H](CCC(=O)O)C(=O)N[C@@H](CCCNC(=N)N)C(=O)N[C@@H](Cc4c[nH]c5ccccc45)C(=O)N[C@@H](CC(=O)O)C(=O)N[C@@H](Cc4c[nH]c5ccccc45)C(=O)N3)NC2=O)C(=O)N[C@@H](Cc2ccccc2)C(=O)N[C@@H]([C@@H](C)CC)C(=O)N[C@@H](C)C(=O)N[C@@H](Cc2ccccc2)C(=O)N1)C(=O)O` [Tx6.7] (H-DCHERWDWCPASLLGVIYCCEGLICFIAFCI-OH; disulfide 2-20, 9-25, 19-30): the “cytotoxicity against ND7/23 cells” value with ND7/23 cells is recorded as “no significant cytotoxicity”. Besides, in the data set with ND7/23 cells (0.01 μM), the Cell viability is listed as 101.95%. The Cell viability in the data set with ND7/23 cells (0.1 μM) was 105.01%. The Cell viability in the data set on ND7/23 cells (1 μM) worked out at 99.18%. Besides, in the data set with ND7/23 cells (10 μM), the Cell viability is given as 98.60%. Further, in the data set with ND7/23 cells (100 μM), the Cell viability was found to be 94.80% and the “Cell viability at all detected concentrations” value is reported as “more than 94%”. The “inhibition of peak potassium currents” value in data set [1] worked out at 22.33 ± 7.81%. In addition, on human CaV1.2 (hCaV1.2) [2], the inhibition at 10 µM was 56.6 ± 3.2%. Also, the “inhibition of hCaV2.2 currents” value in the data set on human CaV2.2 (hCaV2.2) worked out at 24.67 ± 0.91%. For the same compound, the “inhibition of peak calcium currents” value in data set [3] is given as 59.29 ± 2.34%. In data set [3] (n = 3), the “shift in the current-voltage relationship, calcium currents” value is “did not induce a shift in the current-voltage relationship of calcium currents”. Also, in data set [4], the “inhibitory effects on the sodium currents in rat DRG neurons” value is recorded as “no inhibitory effects” and the “shift in the current-voltage relationship, sodium currents” value is reported as “did not induce a shift in the current-voltage relationship”. For the same compound, the “effects on hNaV1.7 currents” value in the data set with human NaV1.7 (hNaV1.7) is listed as “no obvious effects”. Also, in the data set with hNaV1.8, the “inhibition of hNaV1.8 currents” value came out at 7.30 ± 3.38%. Besides, the “effects on hNaV1.3 currents” value in the data set with human NaV1.3 (hNaV1.3) is on record as “no obvious effects”. Also, at human CaV1.2 (hCaV1.2) [5], half-maximal inhibition (IC50) was put at 9.63 ± 1.12 µM. Further, in the data set with Kunming mice, the pain threshold entry was “increased”, the “pain threshold increment percentage (maximum)” value is 98.91% and the “time of maximum analgesic effect” value is on record as 2 h.
For the compound Ziconotide, in [6], the “block of voltage-gated calcium channels (ω family)” value was “blockers of voltage-gated calcium channels”. Also, the “inhibition of calcium currents (ω family conotoxins)” value in the data set on calcium currents is recorded as “inhibiting calcium currents”. Further, the “analgesic effect compared with Tx6.7” value with Kunming mice is listed as “better analgesic effect than Tx6.7”.

Broadly, the inhibition is the relative decrease from the control value, in per cent. As usually defined, the IC50 is the concentration that inhibits the measured activity by half.
